Results published in patent publication US20250332112A1, “IONIZABLE CATIONIC LIPIDS FOR LIPID NANOPARTICLES” (GENEVANT SCIENCES GMBH, priority 2022, published 2025).

Columns and labels:
[1] = system: luciferase activity in the liver; assay: Luciferase activity in liver after intravenous luciferase mRNA LNP; assay type: in vivo; conditions: 0.5 mg/kg IV, 6 h post-IV administration, BALB/c mice (n = 4)
Method: Frozen aliquots of liver were thawed and homogenized in 1 mL of 1×CCLR (Cell Culture Lysis Reagent) using a FastPrep® homogenizer. The homogenate was then centrifuged at 16,000 RPM for 10 minutes at 4° C. Twenty (20) μL of the supernatant was loaded into a 96-well white plate and luminescence measured following addition of luciferase reagent (Promega Luciferase Assay System). Luciferase activity was determined by comparing luminescence of the homogenized samples to luciferase protein standards. To account for any quenching of luminescence by components in the liver homogenate, luciferase was added to the liver homogenates of untreated animals and the resulting luminescence measured. The resulting quench factor was applied to all samples to obtain the corrected luciferase activity, and normalized per unit mass of tissue analyzed.

[2] = Particle characteristics of LNPs containing luciferase mRNA and novel ionizable lipids; assay type: physicochemical
Method: The lipid solution contains 4 components: a PEG-conjugated lipid, an ionizable lipid, cholesterol, and a phospholipid (e.g., DSPC). Lipid stocks were prepared using the lipid identities and molar ratios as described, to achieve a total concentration of ˜7 mg/mL in 100% ethanol. Firefly luciferase mRNA (TriLink Biotechnologies, L-7202) or ornithine transcarbamylase (OTC) mRNA (TriLink Biotechnologies, custom designed) was diluted in acetate, pH 5 buffer and nuclease free water to achieve a target concentration of 0.366 mg/mL mRNA in 100 mM acetate, pH 5. Equal volumes of the lipid and nucleic acid solutions were blended at a flow rate of 400 mL/min through a T-connector, and diluted with ˜4 volumes of PBS, pH 7.4. Formulations were placed in Slide-A-Lyzer dialysis units (MWCO 10,000) and dialyzed overnight against 10 mM Tris, 500 mM NaCl, pH 8 buffer. Following dialysis, the formulations were concentrated to ˜0.6 mg/mL using VivaSpin concentrator units (MWCO 100,000) and dialyzed overnight against 5 mM Tris, 10% sucrose, pH 8 buffer. Formulations were filtered through a 0.2 μm syringe filter (PES membrane). Nucleic acid concentration was determined by the RiboGreen assay. Particle size and polydispersity were determined using a Malvern Nano Series Zetasizer.
LNP formulations containing novel ionizable lipids all produced stable particles with high encapsulation efficiency (Tables 1-7).

[3] = Parent ionizable lipid remaining in liver at 6 h after luciferase mRNA LNP (LC-MS); assay type: in vivo; conditions: 6 h after IV 0.5 mg/kg Luciferase mRNA LNP
Method: Liver tissues were treated with PBS and homogenized with a FastPrep machine, 3 cycles of 5 m/s×15 s. Homogenates from the PBS-treated control animals was pooled and used for standard curve preparation. Samples were extracted into a deep well plate with 250 μL of an internal suitability standard. Plates were centrifuged for 15 min at 4° C. and 2000 rpm. Analysis was performed using an Agilent 6520 QTOF coupled to an Agilent 1290 UHPLC, using reverse-phase LC separation. Quantitation of the ionizable lipid was by MS/MS against a calibration curve spiked into appropriately matched blank matrix. Calibration used a similar class of synthetic lipid as internal standard.
At 6 h post-dose, some treatment groups reported lower levels of novel ionizable lipid in mouse liver compared to the benchmark (Tables 16-18).

[4] = Table 3, luciferase mRNA LNP 1.6:54.6:32.8:10.9
[5] = Table 16, female BALB/c mice (n = 4)
[6] = Table 6, luciferase mRNA LNP 1.6:54.6:32.8:10.9
[7] = Table 18, female BALB/c mice (n = 4)
[8] = Table 1, luciferase mRNA LNP 1.6:54.6:32.8:10.9
[9] = Table 1, luciferase mRNA LNP 1.6:54.6:32.8:10.9 PEG2000-C-DMA:Ionizable lipid:Cholesterol:DSPC
[10] = Table 2, luciferase mRNA LNP 1.6:54.6:32.8:10.9

## CCCCCCCCCCC(CCCCCC(=O)OCC(CCCCCC)CCCCCCCC)N(CCCCCCCCCC)C(=O)CCCCN(C)C (centres unmarked) [Compound 3, 2-Hexyldecyl 7-(N-decyl-5-(dimethylamino)pentanamido)heptadecanoate]
[1]; Table 10
  Luc Activity: 5.94E+07 pg/g liver
[2]; [4]
  Final Product % EE: 99%
  Final Product PDI: 0.05
  Final Product Z-avg: 91 nm
[3]; [5]
  Parent ionizable lipid remaining in liver, Average: 7.72 nmol/g liver

## CCCCCCCCCCC(CCCCCC(=O)OCC(CCCCCC)CCCCCCCC)N(CCCCCCCCCC)C(=O)CCCN(C)C (centres unmarked) [Compound 4, 2-Hexyldecyl 7-(N-decyl-4-(dimethylamino)butanamido)heptadecanoate]
[1]; Table 10
  Luc Activity: 7.84E+07 pg/g liver
[2]; [4]
  Final Product % EE: 99%
  Final Product PDI: 0.03
  Final Product Z-avg: 82 nm
[3]; [5]
  Parent ionizable lipid remaining in liver, Average: 18.97 nmol/g liver

## CCCCCCCCCCC(CCCCCCCC(=O)OC(CCCCCC)CCCCCC)N(CCCCCCCCCC)C(=O)CCCN(C)C (centres unmarked) [Compound 5, Tridecan-7-yl 9-(N-decyl-4-(dimethylamino)butanamido)nonadecanoate]
[1]; Table 13
  Luc Activity: 9.49E+07 pg/g liver
[2]; [6]
  Final Product % EE: 99%
  Final Product PDI: 0.05
  Final Product Z-avg: 68 nm
[3]; Table 17, female mice (n = 4)
  Parent ionizable lipid remaining in liver, Average: 49.53 nmol/g liver

## CCCCCCCCCCN(C(=O)CCCN(C)C)C(CCCCCCCCC)CCCCCCC(F)(F)C(=O)OCC(CCCCCC)CCCCCCCC (centres unmarked) [Compound 17, 2-Hexyldecyl 9-(N-decyl-4-(dimethylamino)butanamido)-2,2-difluorooctadecanoate]
[1]; Table 13
  Luc Activity: 5.52E+07 pg/g liver
[2]; [6]
  Final Product % EE: 99%
  Final Product PDI: 0.10
  Final Product Z-avg: 68 nm
[3]; Table 17, female mice (n = 4)
  Parent ionizable lipid remaining in liver, Average: 24.00 nmol/g liver
[3]; [7]
  Parent ionizable lipid remaining in liver, Average: 36.58 nmol/g liver

## CCCCCCCCCCON(C(=O)CCCCN(C)C)C(CCCCCCCCCC)CCCCCCC(=O)OCC(CCCCCC)CCCCCCCC (centres unmarked) [Compound 45]
[1]; Table 13
  Luc Activity: 8.00E+07 pg/g liver
[3]; Table 17, female mice (n = 4)
  Parent ionizable lipid remaining in liver, Average: 36.39 nmol/g liver

## CCCCCCCCCCC(CCCCCCC(=O)OCC(CCCCCC)CCCCCCCC)N(OCCCCCCCCC)C(=O)CCCN(C)C (centres unmarked) [Compound 46]
[1]; Table 13
  Luc Activity: 1.08E+08 pg/g liver
[3]; Table 17, female mice (n = 4)
  Parent ionizable lipid remaining in liver, Average: 47.63 nmol/g liver

## CCCCCCCCCC(CC(=O)OCC(CCCCCC)CCCCCCCC)N(CCCN(C)C)S(=O)(=O)CCCC (centres unmarked) [Compound 49, 2-Hexyldecyl 3-(N-(3-(dimethylamino)propyl)butylsulfonamido)dodecanoate]
[1]; Table 8
  Luc Activity: 8.36E+06 pg/g liver
[2]; [8]
  Final Product % EE: 96%
  Final Product PDI: 0.08
[2]; [9]
  Final Product Z-avg: 61 nm

## CCCCCCCCCCOC(=O)CC(CCCCCCCCC)N(CCCN(C)C)S(=O)(=O)CC(CCCCCC)CCCCCCCC (centres unmarked) [Compound 50, Decyl 3-{N-[3-(dimethylamino)propyl]2-hexyldecanesulfonamido}dodecanoate]
[1]; Table 8
  Luc Activity: 4.82E+06 pg/g liver
[2]; [8]
  Final Product % EE: 93%
  Final Product PDI: 0.07
[2]; [9]
  Final Product Z-avg: 61 nm

## CCCCCCCCCCCS(=O)(=O)N(CCCN(C)C)C(CCCCCCCCC)CC(=O)OCC(CCCCCC)CCCCCCCC (centres unmarked) [Compound 51, 2-hexyldecyl 3-{N-[3-(dimethylamino)propyl]undecane-1-sulfonamido}dodecanoate]
[1]; Table 8
  Luc Activity: 2.50E+07 pg/g liver
[2]; [8]
  Final Product % EE: 94%
  Final Product PDI: 0.09
[2]; [9]
  Final Product Z-avg: 62 nm

## CCCCC/C=C\CCCOC(=O)CC(CCCCCCCCC)N(CCCN(C)C)S(=O)(=O)CCCCCCCCCCC (centres unmarked) [Compound 52, (Z)-Dec-4-en-1-yl 3-(N-(3-(dimethylamino)propyl)undecylsulfonamido)dodecanoate]
[1]; Table 8
  Luc Activity: 5.65E+06 pg/g liver
[2]; [8]
  Final Product % EE: 95%
  Final Product PDI: 0.05
[2]; [9]
  Final Product Z-avg: 72 nm

## CCCCCCCCCC(=O)N(CCCN(C)C)C(CCCCCCCCC)CC(=O)NN(CCCCCCCC)CCCCCCCC (centres unmarked) [Compound 53, N-[3-(dimethylamino)propyl]-N-[1-(N′,N′-dioctylhydrazinecarbonyl)undecan-2-yl]decanamide]
[1]; Table 9
  Luc Activity: 8.02E+06 pg/g liver
[2]; [10]
  Final Product % EE: 97%
  Final Product PDI: (0.07)
  Final Product Z-avg: 106 nm

## CCCCCCCCCC(=O)N(CCCN(C)C)C(CCCCCCCCC)CC(=O)NN=C(CCCCCCCC)CCCCCCCC (centres unmarked) [Compound 55, N-[3-(dimethylamino)propyl]-N-{1-[N′-(heptadecan-9-ylidene)hydrazinecarbonyl]undecan-2-yl}decanamide]
[1]; Table 9
  Luc Activity: 1.22E+06 pg/g liver
[2]; [10]
  Final Product % EE: 98%
  Final Product PDI: (0.17)
  Final Product Z-avg: 94 nm

## CCCCC/C=C\CCCC(CCC/C=C\CCCCC)=NNC(=O)CC(CCCCCCCCC)N(CCCN(C)C)C(=O)CCCCCCCCC (centres unmarked) [Compound 56, N-(3-(Dimethylamino)propyl)-N-(1-(2-((6Z,15Z)-henicosa-6,15-dien-11-ylidene)hydrazineyl)-1-oxododecan-3-yl)decanamide]
[1]; Table 9
  Luc Activity: 9.00E+06 pg/g liver
[2]; [10]
  Final Product % EE: 96%
  Final Product PDI: (0.10)
  Final Product Z-avg: 97 nm

## CCCCCCCCCC(=O)N(CCCN(C)C)C(CCCCCCCCC)CC(=O)NNC(CCCCCCCC)CCCCCCCC (centres unmarked) [Compound 58, N-[3-(dimethylamino)propyl]-N-{1-[N′-(heptadecan-9-yl)hydrazinecarbonyl]undecan-2-yl}decanamide]
[1]; Table 9
  Luc Activity: 3.11E+05 pg/g liver
[2]; [10]
  Final Product % EE: 99%
  Final Product PDI: (0.13)
  Final Product Z-avg: 81 nm

## CCCCCCCCCCC(CCCCCCC(=O)OCCC(CCCCC)CCCCC)N(CCCCCCCC(=O)OCc1cc(CCCCCC)cc(CCCCCC)c1)C(=O)CCCN(C)C (centres unmarked) [Compound 66]
[1]; Table 14
  Luc Activity: 2.00E+07 pg/g liver
[3]; [7]
  Parent ionizable lipid remaining in liver, Average: 34.35 nmol/g liver

## CCCCCCCCCCC(CCCCCCC(=O)OCCC(CCCCCC)CCCCCC)N(CCCCCCCC(=O)OCCC(CCCCCC)CCCCCC)C(=O)CCCN(C)C (centres unmarked) [Compound 69]
[1]; Table 13
  Luc Activity: 4.10E+07 pg/g liver
[3]; Table 17, female mice (n = 4)
  Parent ionizable lipid remaining in liver, Average: 50.57 nmol/g liver

## CCCCCCCCCCC(CCCCCCC(=O)OCCC(CCCCCCC)CCCCCCC)N(CCCCCCCC(=O)OCCC(CCCCCCC)CCCCCCC)C(=O)CCCN(C)C (centres unmarked) [Compound 71]
[1]; Table 13
  Luc Activity: 4.58E+07 pg/g liver
[3]; Table 17, female mice (n = 4)
  Parent ionizable lipid remaining in liver, Average: 27.52 nmol/g liver

## CCCCCCCCCCC(CCCCCCC(=O)OCCC(CCCCC)CCCCC)N(CCCCCCCCC(=O)OCCC(CCCCC)CCCCC)C(=O)CCCCN(C)C (centres unmarked) [Compound 75]
[1]; Table 14
  Luc Activity: 2.58E+07 pg/g liver
[3]; [7]
  Parent ionizable lipid remaining in liver, Average: 20.44 nmol/g liver

## CCCCCCCCCCC(CCCCCCC(=O)OCC(CCCCCC)CCCCCCCC)N(CCCN(C)C)C(=O)CCCCCCC(=O)OCCC(CCCCCC)CCCCCC (centres unmarked) [Compound 84]
[1]; Table 13
  Luc Activity: 6.26E+07 pg/g liver
[3]; Table 17, female mice (n = 4)
  Parent ionizable lipid remaining in liver, Average: 38.96 nmol/g liver

## CCCCCCCCCCC(CCCCCCC(=O)OCC(CCCCCC)CCCCCCCC)N(CCCN(C)C)C(=O)CCCCCCC(=O)OCCC(CCCCCCC)CCCCCCC (centres unmarked) [Compound 85]
[1]; Table 13
  Luc Activity: 4.79E+07 pg/g liver
[3]; Table 17, female mice (n = 4)
  Parent ionizable lipid remaining in liver, Average: 37.66 nmol/g liver

## CCCCCCCCCCC(CCCCCCC(=O)OCCC(CCCCC)CCCCC)N(CCCCCC(F)C(=O)OCCC(CCCCC)CCCCC)C(=O)CCCN(C)C (centres unmarked) [Compound 86]
[1]; Table 14
  Luc Activity: 1.21E+07 pg/g liver
[3]; [7]
  Parent ionizable lipid remaining in liver, Average: 12.79 nmol/g liver
